The values that follow come from patent US11725015B2, “Macrocyclic compound and uses thereof” (President and Fellows of Harvard College, priority 2017, dated 2023).

Experiment [1] relates to MES-SA (human uterine sarcoma) xenograft. Put plainly: Antitumor effects in MES-SA soft tissue sarcoma xenograft model in mice as monotherapy. The note with it: 180 μg/kg intravenously on Day 1 and Day 8. In kind it is in vivo. On the procedure: A human uterine sarcoma cell line MES-SA, which had been cultured in an RPMI-1640 containing 10% FBS, and penicillin-streptomycin, was adjusted to a concentration of 2×10^8 cells/mL with Hanks' Balanced Salt Solution to prepare a cell suspension, and the suspension was mixed with Geltrex® (Thermo Fisher Scientific Inc., #A1413202) in a ratio of 1:1 to prepare a cell suspension in a concentration of 1×10^8 cells/mL. The cell suspension was inoculated in a volume of 100 μL into a subcutaneous part of a right flank of nude mice, 6 weeks of ages (CAnN.Cg-Foxnlnu/CrlCrlj, female, Charles River Laboratories Japan Inc.). Six days after cell inoculation (Day 1), the shortest diameter and the longest diameter of a tumor in each mouse were measured by using an electronic digital caliper (Digimatic™ caliper, Mitutoyo Corporation), so as to calculate the volume of the tumor in accordance with the following calculation formulae: Tumor volume (mm^3)=Longest diameter (mm)×Shortest diameter (mm)×Shortest diameter (mm)/2 Relative tumor volume (RTV)=Tumor volume (day X)/Tumor volume (the first day)
On the basis of the volumes of tumors obtained on Day 1, the mice were grouped such that averages of the tumor volumes were substantially equal among the groups. The experiment was conducted on groups each consisting of 6 mice. […]

Experiment [2] deals with OE21 (human squamous cell carcinoma of the esophagus). Nature of the experiment: In vitro antiproliferative activity, OE21. It counts as cell-based. The note with it: OE21, 72 hours. How it is done:
The in vitro antiproliferative assays for Compound (1) were conducted using a small panel of cancer cell lines including human squamous cell carcinoma of the esophagus (OE21, TE-8), human adenocarcinoma of the esophagus (OE33), and human uterine sarcoma (MES-SA, MES-SA-Dx5-Rx1). All cell lines were cultured in RPMI-1640 medium containing 10% FBS, and penicillin-streptomycin (culture medium), in a 5% CO2 incubator (37° C.). To each well of a 96 well plate (Becton, Dickinson and Company, 353219), 75 μL of cell suspension adjusted to a concentration of 4×10^4 cells/mL with the culture medium was added, and the cells were incubated overnight in a 5% CO2 incubator (37° C.). On the next day, 25 μL of Compound (1) in three-fold dilution series suspended in the culture medium was added to each well, and the resultant was incubated for 72 hours in a 5% CO2 incubator (37° C.). Then, cell viability was determined by CellTiter-Glo® Luminescent Cell Viability Assay (Promega) with 2013 EnVision™ Multilabel Reader (Perkin-Elmer, Wellesley, Mass.). Value of the wells containing cells without adding the test compounds was defined as 100% and the value of the wells containing no cells was defined as 0%. […] The P-gp susceptibility was calculated as the ratio of the IC50 value in MES-SA-Dx5-Rx1 cells, which overexpress P-gp, to the IC50 value in MES-SA cells.

In experiment [3] the test system is α-SMA-positive CAFs in the FaDu subcutaneous model. Put plainly: Effect on α-SMA-positive CAFs in the FaDu subcutaneous model in mice (Test Example 19). In kind it is in vivo. How it is done:
A human squamous cell carcinoma of the head and neck (SCCHN) cell line FaDu, which had been cultured in an RPMI-1640 medium containing 10% FBS, and penicillin-streptomycin (culture medium), was adjusted to a concentration of 5×10^7 cells/mL with culture medium to prepare a cell suspension. The cell suspension was inoculated in a volume of 100 μL into a subcutaneous part of a right flank of nude mice, 6 weeks of ages (CAnN.Cg-Foxnlnu/CrlCrlj, female, Charles River Laboratories Japan, Inc.). Ten days after cell inoculation, the mice were grouped such that averages of the tumor volumes were substantially equal among the groups. The experiment was conducted on groups each consisting of 5 mice. Each test compound was dissolved in DMSO and a solution was stored in the freezer before use. Immediately before the administration, the stock solution was diluted with saline. The test compound in saline was intravenously administered at 20 μg/kg, […]. Two days or 5 days after the single administration, tumor samples were collected and fixed with IHC Zinc Fixative (BD Pharmingen) at 4° C. for 24 hours. Paraffin-embedded tissues were sectioned (3 μm), mounted on positively charged slides, and air-dried. Sections were deparaffinized, conditioned and the antigens were retrieved using microwave with 1 mM EDTA at pH 6.0. Sections were blocked with 1% of BSA in TBS. Mouse anti-α-SMA monoclonal antibody conjugated with alkaline phosphatase (clone 1A4, Sigma) was applied at 5 μg/mL. Sections were incubated with the antibody for 2.5 hr. […] The area of α-SMA-positive region in the whole tumor was quantified by counting the α-SMA-positive objects using inform 2 software (PerkinElmer Inc.) Area of the tumor region was measured by assessing the hematoxylin-staining area using inform 2 software (PerkinElmer Inc.). […] A suppression rate of the α-SMA-positive area of the test compound-dosing group was calculated with the below formula: α-SMA ratio=α-SMA area of the test compound-dosing group/α-SMA area of the non-treat group

On to `C=C1C[C@@H]2CC[C@@]34C[C@H]5O[C@H]6[C@@H](O3)[C@H]3O[C@H](CC[C@@H]3O[C@H]6C5O4)CC(=O)O[C@@H]3[C@@H](C)[C@@H]4O[C@@H]5C[C@]6(C[C@@H]7O[C@]8(C[C@H](C)[C@@H]9O[C@H](CN)[C@H](O)C[C@@H]9O8)C[C@H](C)[C@@H]7O6)O[C@@H]5C[C@@H]4O[C@H]3C[C@H]3O[C@@H](CC[C@@H]1O2)C[C@@H](C)C3=C` [Compound (1)], for which, in experiment [1], the antitumor activity entry is “tumor growth delay”. For the same compound, in experiment [2], the antiproliferative activity result is “potent antiproliferative agent”. For the same compound, the α-SMA positive area entry in experiment [3] (single administration 180 μg/kg, Day 3) is given as “significantly reduced the α-SMA positive area”; in experiment [3] (single administration 180 μg/kg, Day 6), “significantly reduced the α-SMA positive area”; in experiment [3] (single administration 60 m/kg, Day 3), “significantly reduced the α-SMA positive area”.
